Columns and labels:
Assay type in all cases: in vivo
[1] = system: Amaranthus retroflexus; test: Greenhouse post-emergence herbicidal activity, AMARE; settings: AMARE; for pest or weed control at 31 g/ha: 0.031 kg/ha; for pest or weed control at 63 g/ha: 0.063 kg/ha; for pest or weed control at 125 g/ha: 0.125 kg/ha; for pest or weed control at 1000 g/ha: 1 kg/ha
Method in brief: (§1)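 Injury was rated visually on a 0–100 scale, where 100 meant complete destruction of at least the aerial parts and 0 normal growth, over a 2 to 4 week test period. Treatment was applied post-emergence at plant heights of 3 to 15 cm.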

[2] = system: Ambrosia artemisiifolia; test: Greenhouse post-emergence herbicidal activity, AMBEL; settings: scale 0 to 100
Method in brief: as §1

[3] = system: Capsella bursa-pastoris; test: Greenhouse post-emergence herbicidal activity, CAPBP; settings: scale 0 to 100
From the text: (§2) The culture containers used were plastic flowerpots containing loamy sand with approximately 3.0% of humus as the substrate. The seeds of the test plants were sown separately for each species.
(§3) For the post-emergence treatment, the test plants were first grown to a height of 3 to 15 cm, depending on the plant habit, and only then treated with the active ingredients which had been suspended or emulsified in water. For this purpose, the test plants were either sown directly and grown in the same containers, or they were first grown separately as seedlings and transplanted into the test containers a few days prior to treatment.
(§4) Depending on the species, the plants were kept at 10-25° C. or 20-35° C., respectively.
(§5) The test period extended over 2 to 4 weeks. During this time, the plants were tended, and their response to the individual treatments was evaluated.
(§6) Evaluation was carried out using a scale from 0 to 100. 100 means no emergence of the plants, or complete destruction of at least the aerial moieties, and 0 means no damage, or normal course of growth. A good herbicidal activity is given at values of at least 70 and a very good herbicidal activity is given at values of at least 85.

[4] = system: Chenopodium album; test: Greenhouse post-emergence herbicidal activity, CHEAL; settings: scale 0 to 100; for pest or weed control at 63 g/ha: 0.063 kg/ha; for pest or weed control at 31 g/ha: 0.031 kg/ha; for pest or weed control at 125 g/ha: 0.125 kg/ha
Method in brief: as §1

[5] = system: Cirsium arvense; test: Greenhouse post-emergence herbicidal activity, CIRAR; settings: CIRAR; for pest or weed control at 31 g/ha: 0.031 kg/ha; for pest or weed control at 63 g/ha: 0.063 kg/ha, scale 0 to 100, read-out: Herbicidal activity
Method in brief: as §1

[6] = system: Oryza sativa; test: Greenhouse post-emergence herbicidal activity on crop ORYSA (rice); settings: ORYSA (rice, crop), scale 0 to 100
Method in brief: as §1

[7] = system: Polygonum aviculare; test: Greenhouse post-emergence herbicidal activity, POLAV; settings: 0.25 kg/ha, scale 0 to 100
From the text: as §2, §3, §4, §5, §6

[8] = system: Setaria faberi; test: Greenhouse post-emergence herbicidal activity, SETFA; settings: scale 0 to 100
From the text: as §2, §3, §4, §5, §6

[9] = system: Zea mays; test: Greenhouse post-emergence herbicidal activity on crop ZEAMX (corn, maize); set-up: key: 0 = no damage/normal growth, 100 = no emergence or complete destruction; settings: ZEAMX (corn, crop), scale 0 to 100
Method in brief: as §1

[10] = system: Abutilon theophrasti; test: Greenhouse post-emergence herbicidal activity, ABUTH; settings: ABUTH; for pest or weed control at 1000 g/ha: 1 kg/ha
Method in brief: as §1

[11] = system: Echinocloa crus-galli; test: Greenhouse post-emergence herbicidal activity, ECHCG; settings: Echinochloa crus-galli, ECHCG; for pest or weed control at 125 g/ha: 0.125 kg/ha; for pest or weed control at 1000 g/ha: 1 kg/ha; for pest or weed control at 2000 g/ha: 2 kg/ha, scale 0 to 100, read-out: Herbicidal activity
Method in brief: as §1

[12] = system: Panicum miliaceum; test: Greenhouse post-emergence herbicidal activity, PANMI; settings: 0.031 kg/ha, scale 0 to 100
From the text: as §2, §3, §4, §5, §6

[13] = system: Brachiaria deflexa; test: Greenhouse post-emergence herbicidal activity, BRADE; settings: 0.031 kg/ha, scale 0 to 100
From the text: as §2, §3, §4, §5, §6

[14] = system: Eriochloa villosa; test: Greenhouse post-emergence herbicidal activity, ERBVI; settings: 0.063 kg/ha, scale 0 to 100
From the text: as §2, §3, §4, §5, §6

[15] = system: Kochia scoparia; test: Greenhouse post-emergence herbicidal activity, KCHSC; settings: 0.063 kg/ha, scale 0 to 100
Method in brief: as §1

[16] = system: Setaria viridis; test: Greenhouse post-emergence herbicidal activity, SETVI; settings: 2 kg/ha, scale 0 to 100
From the text: as §2, §3, §4, §5, §6

[17] = system: Ipomoea hederacea; test: Greenhouse post-emergence herbicidal activity, IPOHE; settings: 0.125 kg/ha, scale 0 to 100
From the text: as §2, §3, §4, §5, §6

[18] = system: Sesbania herbacea; test: Greenhouse post-emergence herbicidal activity, SEBEX; settings: 0.125 kg/ha, scale 0 to 100
From the text: as §2, §3, §4, §5, §6

[19] = system: Commelina benghalensis; test: Greenhouse post-emergence herbicidal activity, COMBE; settings: 0.125 kg/ha, scale 0 to 100
From the text: as §2, §3, §4, §5, §6

[20] = 2 kg/ha, scale 0 to 100, read-out: Herbicidal activity

| SMILES | pest or weed control at 31 g/ha ([1]; scale 0 to 100) [%] | pest or weed control at 63 g/ha ([1]; scale 0 to 100) [%] | pest or weed control at 125 g/ha ([1]; scale 0 to 100) [%] | Herbicidal activity ([3]; 0.125 kg/ha) | pest or weed control at 63 g/ha [4] [%] | pest or weed control at 31 g/ha ([5]; scale 0 to 100) [%] | Herbicidal activity ([6]; 0.063 kg/ha) | Herbicidal activity ([9]; 0.031 kg/ha) | Herbicidal activity ([9]; 0.125 kg/ha) | pest or weed control at 1000 g/ha ([10]; scale 0 to 100) [%] | pest or weed control at 1000 g/ha ([1]; scale 0 to 100) [%] | pest or weed control at 31 g/ha [4] [%] | pest or weed control at 125 g/ha [4] [%] | pest or weed control at 125 g/ha ([11]; scale 0 to 100) [%] | pest or weed control at 1000 g/ha ([11]; scale 0 to 100) [%] | Herbicidal activity ([6]; 0.031 kg/ha) | Herbicidal activity ([9]; 0.063 kg/ha) | pest or weed control at 2000 g/ha [11] [%] | Herbicidal activity [16] | pest or weed control at 63 g/ha [5] [%] | also measured |
| --- | --- | --- | --- | --- | --- | --- | --- | --- | --- | --- | --- | --- | --- | --- | --- | --- | --- | --- | --- | --- | --- |
| CC1(C)c2cccnc2C(O)=C(c2ccc(Cl)c(N(C3CC3)S(C)(=O)=O)c2Cl)S1(=O)=O [I-25, N-cyclopropyl-N-[2,6-dichloro-3-(8-hydroxy-5,5-dimethyl-6,6-dioxo-thiopyrano[4,3-b]pyridin-7-yl)phenyl]methanesulfonamide] | 95 | 98 | 98 | 95 | 95 | 95 | 35 | 5 | 20 | – | – | – | – | – | – | – | – | – | – | – | pest or weed control at 250 g/ha ([1]; 0.25 kg/ha, scale 0 to 100): 98%; Herbicidal activity ([2]; 0.25 kg/ha): 100; Herbicidal activity ([6]; 0.25 kg/ha): 35; Herbicidal activity [7]: 100; Herbicidal activity ([8]; 0.031 kg/ha): 95; Herbicidal activity ([8]; 0.063 kg/ha): 95; Herbicidal activity ([8]; 0.125 kg/ha): 95 |
| CN(c1c(Cl)ccc(C2=C(O)c3ncccc3CS2(=O)=O)c1Cl)S(=O)(=O)C1CC1 [I-27, N-[2,6-dichloro-3-(8-hydroxy-6,6-dioxo-5H-thiopyrano[4,3-b]pyridin-7-yl)phenyl]-N-methyl-cyclopropanesulfonamide] | – | – | – | – | 100 | – | – | 15 | – | 95 | 100 | 100 | 100 | 98 | 98 | 40 | 20 | – | – | – | pest or weed control at 125 g/ha ([10]; 0.125 kg/ha, scale 0 to 100): 80%; Herbicidal activity ([2]; 0.031 kg/ha): 70; Herbicidal activity ([2]; 0.063 kg/ha): 75; pest or weed control at 63 g/ha ([11]; 0.063 kg/ha, scale 0 to 100): 98%; Herbicidal activity [12]: 75 |
| CCN(c1c(Cl)ccc(C2=C(O)c3ncccc3C(C)(C)S2(=O)=O)c1Cl)S(C)(=O)=O [I-9, N-[2,6-dichloro-3-(8-hydroxy-5,5-dimethyl-6,6-dioxo-thiopyrano[4,3-b]pyridin-7-yl)phenyl]-N-ethyl-methanesulfonamide] | 98 | 98 | 98 | – | – | – | – | 5 | 50 | – | – | 98 | – | 98 | – | – | 10 | 100 | 100 | – | pest or weed control at 2000 g/ha [10, 20]: 98%; Herbicidal activity [13]: 100; pest or weed control at 125 g/ha ([5]; 0.125 kg/ha, scale 0 to 100): 100%; Herbicidal activity [14]: 98; Herbicidal activity [15]: 100 |
| CN(C)S(=O)(=O)Oc1c(Cl)ccc(C2=C(O)c3ncccc3C(C)(C)S2(=O)=O)c1Cl [I-23] | – | 70 | – | – | 95 | 75 | 0 | 0 | 15 | 80 | 100 | 85 | 98 | – | 95 | 0 | 0 | – | – | 80 | Herbicidal activity [17]: 95; Herbicidal activity ([6]; 0.125 kg/ha): 0; Herbicidal activity [18]: 98 |
| CC(C)N(c1c(Cl)ccc(C2=C(O)c3ncccc3C(C)(C)S2(=O)=O)c1Cl)S(C)(=O)=O [I-11, N-[2,6-dichloro-3-(8-hydroxy-5,5-dimethyl-6,6-dioxo-thiopyrano[4,3-b]pyridin-7-yl)phenyl]-N-isopropyl-methanesulfonamide] | – | – | – | 100 | 98 | 90 | – | 0 | – | – | – | 98 | 100 | – | – | – | – | 100 | 100 | 95 | pest or weed control at 2000 g/ha [1, 20]: 100%; Herbicidal activity ([3]; 0.031 kg/ha): 98; Herbicidal activity ([3]; 0.063 kg/ha): 100; Herbicidal activity [19]: 100; Herbicidal activity ([6]; 0.125 kg/ha): 20 |
